Measured values as given in a melting point compilation (Tetko et al.; mined from patent text by program, amines drawn as free bases though some values may be those of a salt).

Compound	melting point [°C]
CC1CC2C3CCC4=CC(=O)C=CC4(C)C3=CCC2(C)C1C(=O)COS(=O)(=O)c1ccc([N+](=O)[O-])cc1 (centres undefined)	151 to 160
O=c1nc(-c2cccc(CSc3ccccn3)n2)sc2ccccc12	151 to 152
O=C1NCCc2c1c1cccc3c1n2CC3	265 to 267
CCCCC1(N(C)C)CCC(c2[nH]c3ccc(F)cc3c2C)(c2[nH]c3ccccc3c2CCNC(=O)Nc2ccccc2)CC1 (centres undefined)	127 to 132
COc1ccc2c(c1)CC(=O)N2N	136 to 138
CC(C)CCCC(C)C1CCC2C3CC=C4CC(OCCCCCCS)CCC4(C)C3CCC12C (centres undefined)	89 to 90
Fc1ccc2cc(C3=CCNCC3)sc2c1	155 to 157
CN(CCCl)C(=O)Nc1ccc([N+](=O)[O-])cc1C(F)(F)F	86 to 87
COC(=O)CCC(C(=O)C=Cc1ccc(OC(C)=O)c(OC(F)(F)F)c1)C(=O)C=Cc1ccc(OC(C)=O)c(OC(F)(F)F)c1 (centres undefined)	149 to 150
COC(=O)C(OCc1ccc(-c2ccc(Cl)cc2)cc1)(C(F)(F)F)C(F)(F)F	61.5 to 62.5
O=C(C1CCN(Cc2ccccc2)CC1)N1CCc2ccccc2C1	98 to 100
CN(C)c1ccc(N2CCN(Cc3c[nH]c4ncccc34)CC2)cc1	199 to 201
CCOC(=O)N1CCN(c2ncc(F)c(SC)n2)CC1	110 to 112
CCOP(=O)(/C=C/c1cn(-c2ccccc2)nc1OCc1ccc(OCc2nc(-c3ccc(C)c(C(=O)OC)c3)oc2C)c(OC)c1)OCC	121 to 122
Cc1nc(C)c(Cl)c(NCc2nccc(SCCCSCCSc3ncccn3)c2C)n1	112 to 115
NNc1nncc(-c2ccc(F)cc2)n1	228 to 231
Cn1ncc2c(=O)n3c(nc21)SCCC3	179 to 180
CC(CNC(=O)OC(C)(C)C)n1nnnc1S (centres undefined)	156 to 158

Continued, values first:

melting point [°C]	Compound
160 to 162	CCOC(=O)[C@H]1CCC(=O)[C@@H](n2nc(-c3c(-c4ccccc4)nn4ccccc34)ccc2=O)C1 (relative stereo)
146 to 147	Cc1cc2nc3c4cc(Br)ccc4n(CCN(C)C)c3nc2cc1C
118	COc1c(C)cccc1CC(N)(CF)C(N)=O (centres undefined)
94 to 96	CS(=O)(=O)c1ccc(-n2nc(-c3ccc(O)cc3O)c3ccc(O)cc32)cc1
177 to 179	CC(C)(C)C(=O)Nc1ccc(Cl)cc1C1(O)CCN(C/C=C/c2ccc(Cl)cc2)CC1
238 to 239	Cc1cc2c(-c3ccc(Br)cc3)c(CC(=O)O)c(=O)oc2cc1Cl
256 to 258	COc1ccc(C(=O)Nc2ccc(C(C)(C)CNC(=O)c3cnc4[nH]ccc4c3)cc2)cc1OC
154 to 157	COc1cc2c(c3c1OC(C)(C)C3)C(c1cccc(C(=O)N[C@H]3CNC3=O)c1)=NC(C)(C)C2
235 to 237	N#Cc1cc(F)cc(-c2ccc3c(c2)C2(CCCC2)C(=O)N3)c1
185	C[C@@H](Cn1ccc2ccc3ncccc3c21)NC(=O)OC(C)(C)C
131	COC(=O)C(=NO)N(C)c1cccc(C(F)(F)F)c1
133 to 135	Cc1cc(Br)ccc1NC(=O)CC(=O)Sc1ccccc1
144 to 145	COc1cc(OCC(CO)CO)c(-c2cccs2)cc1C=O
196 to 200	CCOC(=O)C1=C(C)Nc2n[nH]cc2C1c1ccccc1OC (centres undefined)
145 to 146	CCOC(=O)C=Cc1ccc(OCc2nc(-c3ccccc3)oc2C)cc1
126 to 128	CCN(C)c1cc(F)cc(C(=O)Nc2ccc(OCCN3CCOCC3)c3ccccc23)c1
175	Cc1cc(O)cc(C)c1-c1cccc(CO)c1
67 to 68	Cc1nc(CNC=O)ccc1OCc1ccccc1
157 to 159	Cc1nc(OC(C)C(=O)O)nn1-c1ccccc1 (centres undefined)
126 to 128	O=C(Nc1ccc(C(=O)Oc2ccccc2)c(Cl)c1)c1ccccc1
221 to 223	CC[C@@H](C)[C@@H]1NC(=O)OC1(c1ccccc1)c1ccccc1
